46 compounds from the Deep4Chem optical property database can be followed below.

The nature of this series: solvent given as SMILES.

On to `CCc1cccc(CC)c1-c1c2ccccc2c(-c2c(CC)cccc2CC)c2cc3ccccc3cc12`, for which the emission maximum (in ClCCl) amounted to 501 nm.

With `N#Cc1nc(N(Cc2ccccc2Cl)Cc2ccccc2Cl)c(C#N)nc1N(Cc1ccccc1Cl)Cc1ccccc1Cl`, for the setting “in ClC(Cl)Cl”, the emission maximum is recorded as 567 nm.

Regarding `CCC1(CC)c2cc(Br)ccc2-c2c1c1c(c3c2C(CC)(CC)c2cc(-c4cccs4)ccc2-3)C(CC)(CC)c2cc(Br)ccc2-1`, the emission maximum (in C1CCOC1) amounted to 371 nm.

With `COc1ccc(C2=[N+]3C(=Nc4c5c6ccccc6c6ccc(C(C)(C)C)cc6c5c(-c5ccc(OC)cc5)n4[B-]3(F)F)c3c2c2cc(C(C)(C)C)ccc2c2ccccc32)cc1`, the emission maximum (in Cc1ccccc1) amounted to 741 nm.

As for `COc1ccc(-c2nc(-c3ccccc3)c(-c3ccccc3)[nH]2)cc1`, the emission maximum (in CO) came out at 395 nm.

Where the note is “in Cc1ccccc1”, `CC1(C)c2ccccc2N(c2ccc3c(c2)c(=O)c2cccc4c(=O)c5cc(N6c7ccccc7C(C)(C)c7ccccc76)ccc5n3c24)c2ccccc21` showed an emission maximum of 549.35 nm.

As to `COCCOCCOc1cc(C=O)c(OCCOCCOC)cc1C=O`, the emission maximum is, setting by setting: (in CC(C)(C)O) 478 nm; (in CC(C)CO) 481 nm; (in CC(C)O) 481 nm; (in CCCCO) 467 nm; (in CCCO) 464 nm; (in CCO) 464 nm. Also, the emission maximum (in CN(C)C=O) stood at 466 nm; the emission maximum (in CNC=O) is reported as 450 nm; the emission maximum (in CO) is given as 466 nm; the emission maximum (in NC=O) is on record as 458 nm; the emission maximum (in O) amounted to 496 nm.

As to `COc1ccc(/C=C/c2cc(/C=C/c3ccc(OC)cc3)nc(/C=C/c3ccc(C(F)(F)F)cc3)n2)cc1`, the emission maximum by setting is: (in C1CCOC1) 436 nm; (in CC#N) 463 nm; (in CC(C)=O) 452 nm; (in CCCCCCC) 398 nm; (in CS(C)=O) 475 nm; (in Cc1ccccc1) 411 nm. This compound also showed an emission maximum (in ClCCl) of 441 nm.

For the compound `F[B-]1(F)n2cccc2C(c2c3ccccc3cc3ccccc23)=C2C=CC=[N+]21`, the emission maximum reads like this: (in CC#N) 519 nm; (in CCCCCC) 521 nm; (in CCO) 520 nm; (in CN(C)C=O) 524 nm; (in Cc1ccccc1) 525 nm; (in ClCCl) 520 nm.

Turning to `C(=C\c1ncc(-c2ccc(OCc3ccccc3)c(OCc3ccccc3)c2)o1)/c1cccc(N2CCCC2)c1`, the emission maximum (in ClCCl) is 485 nm.

On to `c1ccc(-n2c(-c3c(-n4c5ccccc5c5ccccc54)cccc3-n3c4ccccc4c4ccccc43)nc3ccccc32)cc1`, for which the emission maximum (in C1CCOC1) turned out to be 418 nm.

For `C=Cc1cc2ccccc2oc1=O`, where the note is “in CC#N”, the emission maximum was 413 nm.

Where the note is “in CC#N”, `CN(C)c1ccc(-n2c(-c3ccc(C#N)cc3)nc3ccccc32)cc1` came in with an emission maximum of 586 nm.

The compound `CC(C)c1cccc(C(C)C)c1N1C(=O)c2ccc3cc4c(cc5ccc6c7c(ccc4c57)C(=O)N(c4c(C(C)C)cccc4C(C)C)C6=O)c4ccc(c2c34)C1=O` showed an emission maximum (in ClCCl) of 668 nm.

On to `CCC1(CC)c2cc(B(c3c(C)cc(C)cc3C)c3c(C)cc(C)cc3C)ccc2-c2ccc(N(c3ccccc3)c3ccccc3)cc21`, for which the emission maximum reads like this: (in C1CCOC1) 482 nm; (in CC#N) 531 nm; (in CC(C)=O) 499 nm; (in CCCCCC) 423 nm; (in CN(C)C=O) 532 nm; (in Cc1ccccc1) 448 nm. Further, the emission maximum (in ClC(Cl)Cl) turned out to be 461 nm.

As for `COc1ccc(-n2c3ccccc3c3c(C)cc4ccccc4c32)cc1`, the emission maximum (in ClCCl) is reported as 367 nm.

`CCc1c(CC)c2n(c1C)[B-](F)(F)[N+]1=C(C)c3cc4c(cc3C1=C2)=[N+]1C(=Cc2c(CC)c(CC)c(C)n2[B-]1(F)F)C=4C`: the emission maximum (in ClC(Cl)Cl) was determined as 774 nm.

Consider `Cc1ccc2c(c1)C1(c3ccccc3-c3ccccc31)c1cc(C)ccc1N2c1ccc(-c2nc(-c3ccccc3)cc(-c3ccccc3)n2)cc1`, for which the emission maximum by setting is: (in Cc1ccccc1) 458 nm; (in O=P(c1ccccc1)(c1ccccc1)c1ccc2oc3ccc(P(=O)(c4ccccc4)c4ccccc4)cc3c2c1) 464 nm.

As to `c1ccc(N(c2ccccc2)c2ccc(-c3ccc4c(c3)C3(c5ccccc5Sc5ccccc53)c3cc(-c5ccc(N(c6ccccc6)c6ccccc6)cc5)ccc3-4)cc2)cc1`, the emission maximum (in ClCCl) was 457 nm and the emission maximum (in c1cc(-n2c3ccccc3c3ccccc32)cc(-n2c3ccccc3c3ccccc32)c1) stood at 438 nm.

Take `N#Cc1c(N2CCCCC2)cc(-c2ccc3ccc4cccc5ccc2c3c45)c2c1-c1ccccc1C2=O`: the emission maximum (in C1CCOC1) is 528 nm.

`CC1=CC(/C=C/c2ccc(OCCCN=[N+]=[N-])cc2)=[N+]2C1=C(c1ccc(N(C)C)cc1)c1c(C)cc(C)n1[B-]2(F)F` yielded an emission maximum (in CO) of 586 nm.

With `N#Cc1ccc(C#Cc2ccc3ccc4ccc(C#Cc5ccc(C#N)cc5)c5ccc2c3c45)cc1`, the emission maximum by setting is: (in C1COCCO1) 443.3 nm; (in CC(C)=O) 445.8 nm; (in CCCCCC) 435.5 nm; (in CCCCCCO) 448 nm; (in CCO) 445.5 nm; (in CCOC(C)=O) 442.4 nm. The emission maximum is, setting by setting: (in CO) 445.3 nm; (in Cc1ccccc1) 446.4 nm; (in ClCCl) 448.8 nm.

In the case of `C(S/C=C/c1ccc(/C=C/SC=C2CCCCC2)cc1)=C1CCCCC1`, the emission maximum (in ClCCl) is recorded as 421 nm.

Compound `COc1ccc(/C=C/C2=CC(c3ccccc3)=[O+][B-](F)(F)O2)cc1` came in with an emission maximum (in ClCCl) of 506 nm.

Consider `CCN(CC)c1ccc(/C=C/c2cc(/C=C/c3ccc(N(CC)CC)cc3)nc(N)n2)cc1`, for which the emission maximum is on record as 468 nm (in Cc1ccccc1) and 518 nm (in ClC(Cl)Cl).

Turning to `COC(=O)C[C@H](NC(=O)[C@H](Cc1c[nH]c2ccccc12)NC(=O)OC(C)(C)C)C(=O)OC`, the emission maximum is given as 330 nm (in CC#N), 327 nm (in CCOC(C)=O) and 338 nm (in CO).

In turn, `Cc1ccc([N+]2=c3c4n(c5ccccc35)[B-](F)(F)[N+](c3ccc(C)cc3)=c3c=4n(c4ccccc34)[B-]2(F)F)cc1` showed an emission maximum (in ClCCl) of 808 nm.

`CCCCCCCCN1c2ccccc2Sc2cc(/C=C/c3ccc(N(c4ccc(/C=C/c5ccc6c(c5)Sc5ccccc5N6CCCCCCCC)cc4)c4ccc(/C=C/c5ccc(/C=C/c6ccc(N(c7ccc(/C=C/c8ccc9c(c8)Sc8ccccc8N9CCCCCCCC)cc7)c7ccc(/C=C/c8ccc9c(c8)Sc8ccccc8N9CCCCCCCC)cc7)cc6)c6nsnc56)cc4)cc3)ccc21`: the emission maximum runs as follows: (in C1CCOC1) 654 nm; (in CCOC(C)=O) 644 nm; (in CN(C)C=O) 750 nm; (in Cc1ccccc1) 620 nm; (in ClC(Cl)Cl) 663 nm; (in ClCCl) 710 nm.

Where the note is “in CC#N”, `CCOC(=O)c1c2c3c(ccc(OC)c3c3cc4c(cc13)[Si](C)(C)O[Si]4(C)C)N(C)C2=O` displayed an emission maximum of 418 nm.

In turn, `c1ccc(-c2nc(-c3ccccc3)nc(-c3ccc(N4c5ccccc5C5(c6ccccc64)c4ccccc4C4(c6ccccc6-c6ccccc64)c4ccccc45)cc3)n2)cc1` displayed an emission maximum (in Cc1ccccc1) of 475.42 nm.

In turn, `O=c1cc2cc(O)c3cc(O)cc4ccc(o1)c2c43` registered an emission maximum (in CC1CCCO1) of 483 nm.

As for `CCCCCCN(CCCCCC)c1ccc(C#Cc2c(F)c(F)c(F)c(F)c2F)cc1`, the emission maximum is 464 nm (in CO) and 502 nm (in ClCCl).

Under “in ClCCl”, `CC(C)(C)c1ccc(-c2cc(-c3ccc(-c4cc(-c5ccc(C(C)(C)C)cc5)c(C(=O)NCc5ccccc5)s4)s3)sc2C(=O)NCc2ccccc2)cc1` came in with an emission maximum of 449 nm.

Take `CN1C(=CC2=C([O-])C(=Cc3sc4ccccc4[n+]3C)C2=C(C#N)C#N)Sc2ccccc21`: the emission maximum (in ClC(Cl)Cl) is 723 nm.

As to `F[B-]1(F)n2c(Cl)c(Cl)c(Br)c2C(Cl)=C2C(Br)=C(Cl)C(Cl)=[N+]21`, the emission maximum (in ClCCl) is on record as 560 nm.

`N#Cc1ccc(/C2=C3N=C(C(c4ccccc4)=C/3c3ccccc3)/C(c3ccc(C#N)cc3)=c3\[nH]/c(c(-c4ccccc4)c3-c3ccccc3)=C(/c3ccc(C#N)cc3)C3=N/C(=C(/c4ccc(C#N)cc4)c4[nH]c2c(-c2ccccc2)c4-c2ccccc2)C(c2ccccc2)=C3c2ccccc2)cc1` showed an emission maximum (in ClCCl) of 725 nm.

The compound `CCN(C)c1ccc(C2=C3C(C)=CC(/C=C/c4ccc(OCC(=O)OC)cc4)=[N+]3[B-](F)(F)n3c(C)cc(C)c32)cc1` came in with an emission maximum (in CO) of 581 nm.

On to `c1ccc(-c2nnc(-c3cc(-c4nnc(-c5ccccc5)o4)c(-n4c5ccccc5c5ccccc54)cc3-n3c4ccccc4c4ccccc43)o2)cc1`, for which the emission maximum (in Cc1ccccc1) came out at 439 nm and the emission maximum (in O=P(c1ccccc1)(c1ccccc1)c1ccccc1Oc1ccccc1P(=O)(c1ccccc1)c1ccccc1) worked out at 459 nm.

Consider `CCn1c2ccccc2c2cc3c(cc21)c1ccccc1n3CC`, for which the emission maximum (in ClC(Cl)Cl) turned out to be 425 nm.

`COc1ccc(C2CC(=O)Oc3c2c2nc4ccccc4nc2c2ccccc32)cc1` (stereo not given): the emission maximum (in ClC(Cl)Cl) worked out at 449 nm.

With `CC(C)=CC(=O)c1cc2c(cc1F)NC(C)(C)CC2=O`, the emission maximum is, setting by setting: (in CC#N) 422 nm; (in CCO) 459 nm.

`O=P1(c2ccccc2)C(c2ccc(C(F)(F)F)cc2)=Cc2ccccc21` (stereo not given): the emission maximum (in C1CCOC1) amounted to 414 nm.

In the case of `Cc1cc(C)c(C2=C3C=C(/C=C/C(=O)OCc4ccccc4)C=[N+]3[B-](F)(F)n3cccc32)c(C)c1`, where the note is “in ClCCl”, the emission maximum was 568 nm.

Turning to `O=C1CC(c2ccccc2)c2c(c3ccccc3c3nc4ccccc4nc23)O1` (stereo not given), the emission maximum (in ClC(Cl)Cl) stood at 431 nm.

On to `CC1(C)c2ccccc2N(c2ccc(-c3nc([C@]45CC6CC(C[C@@H](C6)C4)C5)nc([C@]45C[C@H]6C[C@@H](C[C@H](C6)C4)C5)n3)cc2)c2ccccc21`, for which the emission maximum reads like this: (in CC(C)(C)c1ccc(-n2c3ccc([Si](c4ccccc4)(c4ccccc4)c4ccccc4)cc3c3cc([Si](c4ccccc4)(c4ccccc4)c4ccccc4)ccc32)cc1) 450 nm; (in Cc1ccccc1) 469.63 nm.

For `CC(C)(C)/C=C1\C=C(c2ccccc2)C=C1c1ccccc1`, where the note is “in C1CCOC1”, the emission maximum is reported as 460 nm.
